This is an account of results in publication PMC6683251, “Flavanol Bioavailability in Two Cocoa Products with Different Phenolic Content. A Comparative Study in Humans” (Nutrients, 2019).

Values joined by “and” are separate entries in the source; they are usually repeats but may differ in a detail not shown here. Equal values may be shown once. Read-outs that look alike come from different tables or passages of the source. Where only a bound is given, the exact number is not on record here.

Data set [1] is described as follows: Plasma nutrikinetics of flavanol metabolites after a single serving of soluble cocoa product (HPLC-ESI-QToF-MS). The data set is classed as in vivo, human. The conditions noted are these: for AUC: human plasma 0-8 h, read-out: AUC; for AUC / Tmax / Cmax: mean ± SD, n = 13; for Tmax / Cmax: human plasma; for Tmax: read-out: Tmax; for Detection of un-metabolized compound in the collected biological fluids: plasma and urine, CC and CC-PP. The method, then:
The study was carried out in thirteen healthy subjects (3 men and 10 women); the mens’ average age and body mass index were 26.67 ± 3.21 year and 22.47 ± 2.97 kg/m^2, respectively, and womens’ were 32.60 ± 9.85 year and 23.36 ± 3.73 kg/m^2, respectively. They were non-smoker, non-vegetarian, non-pregnant women, who were not taking any medication or nutritional supplements, and were not suffering from any chronic pathology or gastrointestinal disorder. The sample size was estimated attending to similar previous bioavailability studies. The volunteers gave their informed consent prior to participation.
The present randomized, single-blind study was carried out at the Human Nutrition Unit (HNU) of the Institute of Food Science, Technology and Nutrition (ICTAN). Volunteers attended the HNU on two days, separated by two weeks. Three days previous to each visit, participants were instructed not to consume cocoa products (chocolate, soluble cocoa, etc.), juices, tea, wine, grape must, oranges, tangerines, apples, grapes, strawberries or other berries, beets, onions, soybeans and soy derivatives. In addition, volunteers were asked to complete a 24 h food intake recall the day before they attended the HNU in order to monitor any possible food restriction incompliance.
On each intervention day, volunteers arrived at the HNU after an overnight fast. Prior to the intake of the soluble cocoa product, a nurse inserted a cannula in the cubital vein of the non-prevailing arm of the volunteers and blood samples were collected into EDTA-coated tubes at baseline (t = 0) and 0.5, 1, 2, 3, 4, 6, and 8 h after consuming the corresponding cocoa product. The soluble cocoa products, either 15 g of CC or 25 g CC-PP, were dissolved in 200 mL of semi-skimmed milk following manufacturer’s preparation instructions. Plasma was separated by centrifugation (10 min, 3000 rpm, 4 °C) and stored at −80 °C until further analysis. Urine samples were collected at different time intervals (t = −2–0, 0–4, 4–8, 8–12, and 12–24 h) in urine collection flasks that contained 0.5 g of ascorbic acid as preservative and were aliquoted and frozen at −20 °C until analysis. A polyphenol-free breakfast, lunch and afternoon snack were provided 2 h, 4 h, and 8 h after consumption of cocoa products, and water and isotonic beverages were available ad libitum.
A liquid–liquid extraction and protein precipitation with acetonitrile was used to isolate metabolites from plasma. A 1 mL defrosted plasma sample was mixed with 50 μL of ascorbic acid (0.2 g/mL). After vortexing the aqueous mixture, it was added drop wise to 750 μL of cold acetonitrile and vortexed for 2 min before centrifuging at 12,000 rpm for 10 min at 4 °C. The supernatant was separated, and the pellet was re-extracted twice more following the same procedure. Supernatants were combined and reduced to dryness under a stream of nitrogen at 30 °C. The dried samples were resuspended in 150 μL of aqueous formic acid (0.1%) containing 10% acetonitrile acidified with 0.1% formic acid and centrifuged at 4 °C for 20 min at 14,000 rpm. The final supernatant was collected, filtered (0.45 μm pore-size, cellulose-acetate membrane filters, Albet, Dassel (Germany)) and 30 μL were analyzed by high-performance liquid chromatography coupled to electrospray ionisation and quadrupole time-of-flight mass spectrometry (HPLC-ESI-QToF-MS).
Analyses were performed on an Agilent 1200 series LC system coupled to an Agilent 6530A Accurate-Mass Quadrupole Time-Of-Flight (Q-ToF) with ESI-Jet Stream Technology (Agilent Technologies). Compounds were separated on a reverse-phase Ascentis Express C18 (15 cm × 3 mm, […]) column (Sigma-Aldrich Química, Madrid) preceded by a Supelco 55215-U guard column at 30 °C. […]

A short description of data set [2]: Urinary excretion of flavanol metabolites (0-24 h) after a single serving of soluble cocoa product (HPLC-ESI-QToF-MS). The data set is classed as in vivo, human. The following applies: for Excreted in urine, Basal: basal urine (−2–0 h, before intake); for Excreted in urine, Basal / Excreted in urine, Total / Excreted in urine, 0–4 h / Excreted in urine, 4–8 h / Excreted in urine, 8–12 h / Excreted in urine, 12–24 h: mean ± SD, n = 13; for Excreted in urine, Total: 24 h urine; for Detection of un-metabolized compound in urine: any of the interventions (CC, CC-PP). The method, boiled down:
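Fasted women drank 15 g CC or 25 g CC-PP soluble cocoa in 200 mL semi-skimmed milk, in a randomized, single-blind design with visits two weeks apart and a 3-day low-polyphenol diet beforehand. Excreted amounts were normalized to urine volume per interval, quantified against standards or precursor calibration curves.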

For data set [3] the following is noted: cited from earlier work.
Details of data set [4]: method as in PMID 23864538. The following applies: based on recovery in the perfusion fluid, eight volunteers; cited from earlier work.
[5] abbreviates: both sexes, oral, 19.8 mg, after CC (19.80 mg flavanols).
Where [6] appears, read: both sexes, oral, after CC-PP (68.25 mg flavanols).
The mark [7] stands for this setting: both sexes, oral, after CC-PP (25 g in 200 mL semi-skimmed milk, 68.25 mg flavanols), read-out: Cmax.
Where [8] appears, read: after CC-PP (68.25 mg flavanols).

One may read the AUC as the area under the concentration-time curve, a measure of exposure. As usually defined, the Tmax is the time at which the peak concentration occurs. As usually defined, the Cmax is the maximum level reached in the sampled fluid or tissue. As for `O=C1CCC(Cc2ccc(O)c(OC3OC(C(=O)O)C(O)C(O)C3O)c2)O1` (stereo not drawn) [HPVL-3′-glucuronide, 5-(4′-Hydroxyphenyl)-γ-valerolactone-3′-glucuronide], in data set [1] (setting [5]), the AUC is 0.106 ± 0.021 µM·h and the Tmax was 5.6 ± 0.8 h. Moreover, in data set [1] (setting [6]), the AUC amounted to 1.43 ± 0.727 µM·h and the Tmax was 5 ± 1.2 h. Further, in data set [1] (both sexes, oral, after CC (15 g in 200 mL semi-skimmed milk, 19.80 mg flavanols), read-out: Cmax), the Cmax is 31 ± 4 nM. Also, the Cmax in data set [1] (setting [7]) is 357 ± 200 nM. In data set [2] (CC intervention), the “Excreted in urine, Basal” value is recorded as “<L.Q”. The “Excreted in urine, Basal” value in data set [2] (CC-PP intervention) is reported as “<L.Q”. In data set [2] (after CC (19.80 mg flavanols)), the “Excreted in urine, Total” value was 0.600 ± 0.232 µmol; the “Excreted in urine, 0–4 h” value was “<L.Q”; the “Excreted in urine, 4–8 h” value is given as 0.497 ± 0.204 µmol; the “Excreted in urine, 8–12 h” value is on record as 0.103 ± 0.028 µmol. In addition, in data set [2] (after CC (19.80 mg flavanols)), the “Excreted in urine, 12–24 h” value was “<L.Q”. In addition, in data set [2] (setting [8]), the “Excreted in urine, Total” value was found to be 2.358 ± 0.766 µmol; the “Excreted in urine, 0–4 h” value is “<L.Q”; the “Excreted in urine, 4–8 h” value is reported as 1.802 ± 0.567 µmol; the “Excreted in urine, 8–12 h” value amounted to 0.274 ± 0.060 µmol. The “Excreted in urine, 12–24 h” value in data set [2] (setting [8]) is reported as 0.282 ± 0.130 µmol.

`Oc1cc(O)c2c(c1)O[C@H](c1ccc(O)c(O)c1)[C@H](O)[C@H]2c1c(O)cc(O)c2c1O[C@H](c1ccc(O)c(O)c1)[C@H](O)C2` [PB2 dimer, procyanidin B2]: the “Detection of un-metabolized compound in the collected biological fluids” value in data set [1] was “Neither un-metabolized epicatechin and catechin nor procyanidins B1 and B2 were detected”. The “Detection of un-metabolized compound in urine” value in data set [2] was “Neither epicatechin nor PB2 dimer was detected in urine”.

Regarding `O=C1CCC(Cc2cccc(OS(=O)(=O)O)c2)O1` (stereo not drawn) [PVL-3′-sulfate, 5-Phenyl-γ-valerolactone-3′-sulfate], the Tmax in data set [1] (setting [5]) fell in the range of 4 to 6 h. Further, in data set [1] (setting [6]), the AUC is 0.161 ± 0.105 µM·h and the Tmax was found to be 5.2 ± 2.2 h. In addition, in data set [1] (setting [7]), the Cmax was determined as 39 ± 14 nM. Further, the Cmax result in data set [1] (after CC (15 g in 200 mL semi-skimmed milk, 19.80 mg flavanols)) was “traces level”. The “Excreted in urine, Basal” value in data set [2] (CC intervention) is “<L.Q”. In addition, in data set [2] (CC-PP intervention), the “Excreted in urine, Basal” value is reported as “<L.Q”. In data set [2] (after CC (19.80 mg flavanols)), the “Excreted in urine, Total” value stood at 1.691 ± 0.802 µmol; the “Excreted in urine, 0–4 h” value was “<L.Q”; the “Excreted in urine, 4–8 h” value is given as 0.860 ± 0.385 µmol; the “Excreted in urine, 8–12 h” value stood at 0.456 ± 0.284 µmol. Besides, in data set [2] (after CC (19.80 mg flavanols)), the “Excreted in urine, 12–24 h” value came out at 0.375 ± 0.133 µmol. Further, in data set [2] (setting [8]), the “Excreted in urine, Total” value is 7.8 µmol and 7.752 ± 2.868 µmol; the “Excreted in urine, 0–4 h” value is 0.651 ± 0.389 µmol; the “Excreted in urine, 4–8 h” value is given as 4.188 ± 1.535 µmol; the “Excreted in urine, 8–12 h” value was determined as 1.223 ± 0.373 µmol. In addition, the “Excreted in urine, 12–24 h” value in data set [2] (setting [8]) is 1.690 ± 0.572 µmol.

As to `Oc1cc(O)c2c(c1)O[C@H](c1ccc(O)c(O)c1)[C@H](O)C2` [epicatechin], the “Detection of un-metabolized compound in the collected biological fluids” value in data set [1] is “Neither un-metabolized epicatechin and catechin nor procyanidins B1 and B2 were detected”. The Excretion in data set [3] (after ingestion of chocolate providing 220 mg of flavanols) was 29.8%; in data set [3] (after ingestion of cocoa providing 220 mg of flavanols) it was 25.3%. Further, the “Detection of un-metabolized compound in urine” value in data set [2] was “Neither epicatechin nor PB2 dimer was detected in urine”. Also, the “Jejunal absorption, average” value in data set [4] is ~ 46%.
